These molecules were tested on Haemaphysalis longicornis (assay: Test Example 10: Haemaphysalis longicornis, treated filter paper pouch). Conditions: 0.5 mg compound on filter paper 5×10 cm; non-blood sucking nymphal ticks; after 2 days.
Format: in vivo
Experimental: In 1 mL of acetone, 0.5 mg of any one of the present compounds 1 to 48 was dissolved, and the solution was spread uniformly on one side of a filter paper (TOYO No. 2; 5×10 cm). After dried, the filter paper was folded into two, and the sides were clipped to make a pouch. Into the pouch, tested ticks (Haemaphysalis longicornis, non-blood sucking nymphal ticks, 10 ticks in a group) were placed. The pouch was clipped and sealed. After 2 days, the number of dead ticks was counted.

SMILES	death rate
COc1ccccc1OC=C(C)C(=Nc1ccc(C)cc1)Oc1cccc(C)c1 [Compound 240, 3-methylphenyl 3-(2-methoxyphenyloxy)-2-methyl-N-(4-methylphenyl)-2-propenimidate]	100%
COc1ccccc1OC=C(C)C(=Nc1ccccc1)Oc1ccccc1 [Compound 232, phenyl 3-(2-methoxyphenyloxy)-2-methyl-N-phenyl-2-propenimidate]	100%
CCOc1cccc(OC(=Nc2ccc(C)cc2)C(C)=COc2cccc(C)c2)c1 [Compound 186, 3-ethoxyphenyl 2-methyl-N-(4-methylphenyl)-3-(3-methylphenyloxy)-2-propenimidate]	100%
CC(=COc1ccc(C)cc1)C(=Nc1ccccc1)Oc1cccc(C)c1 [Compound 195, 3-methylphenyl 2-methyl-3-(4-methylphenyloxy)-N-phenyl-2-propenimidate]	100%
COc1ccc(N=C(Oc2cc(C)cc(C)c2)C(C)=COc2ccc(OC)cc2)cc1 [Compound 281, 3,5-dimethylphenyl N-(4-methoxyphenyl)-3-(4-methoxyphenyloxy)-2-methyl-2-propenimidate]	100%
COc1ccc(N=C(Oc2ccccc2)C(C)=COc2ccccc2OC)cc1 [Compound 245, phenyl N-(4-methoxyphenyl)-3-(2-methoxyphenyloxy)-2-methyl-2-propenimidate]	100%
COc1cccc(OC=C(C)C(=Nc2ccc(C)cc2)Oc2cccc(C)c2)c1 [Compound 261, 3-methylphenyl 3-(3-methoxyphenyloxy)-2-methyl-N-(4-methylphenyl)-2-propenimidate]	100%
CCCC(=COc1ccccc1)C(=Nc1ccccc1)Oc1ccccc1 [Compound 322, phenyl 3-phenoxy-N-phenyl-2-n-propyl-2-propenimidate]	100%
COc1ccccc1OC=C(C)C(=Nc1ccccc1)Oc1cccc(C)c1 [Compound 233, 3-methylphenyl 3-(2-methoxyphenyloxy)-2-methyl-N-phenyl-2-propenimidate]	100%
COc1ccc(OC=C(C)C(=Nc2ccccc2)Oc2ccccc2)cc1 [Compound 262, phenyl 3-(4-methoxyphenyloxy)-2-methyl-N-phenyl-2-propenimidate]	100%
COc1ccccc1OC=C(C)C(=Nc1ccc(C)cc1)Oc1cc(C)cc(C)c1 [Compound 244, 3,5-dimethylphenyl 3-(2-methoxyphenyloxy)-2-methyl-N-(4-methylphenyl)-2-propenimidate]	100%
CC(=COc1ccc(C)cc1)C(=Nc1ccccc1)Oc1ccc(Cl)cc1 [Compound 202, 4-chlorophenyl 2-methyl-3-(4-methylphenyloxy)-N-phenyl-2-propenimidate]	100%
COc1cccc(OC(=Nc2ccc(C)cc2)C(C)=COc2ccccc2OC)c1 [Compound 242, 3-methoxyphenyl 3-(2-methoxyphenyloxy)-2-methyl-N-(4-methylphenyl)-2-propenimidate]	100%
COc1ccc(OC(=Nc2ccccc2)C(C)=COc2ccc(C)cc2)cc1 [Compound 205, 4-methoxyphenyl 2-methyl-3-(4-methylphenyloxy)-N-phenyl-2-propenimidate]	100%
COc1cccc(OC(=Nc2ccc(C)cc2)C(C)=COc2ccc(C)cc2)c1 [Compound 220, 3-methoxyphenyl 2-methyl-N-(4-methylphenyl)-3-(4-methylphenyloxy)-2-propenimidate]	100%
CC(=COc1cccc(C)c1)C(=Nc1ccccc1)Oc1cc(C)cc(C)c1 [Compound 182, 3,5-dimethylphenyl 2-methyl-3-(3-methylphenyloxy)-N-phenyl-2-propenimidate]	100%
COc1ccc(OC=C(C)C(=Nc2ccc(C)cc2)Oc2cccc(C)c2)cc1 [Compound 270, 3-methylphenyl 3-(4-methoxyphenyloxy)-2-methyl-N-(4-methylphenyl)-2-propenimidate]	100%
COc1ccc(N=C(Oc2ccccc2)C(C)=COc2cccc(C)c2)cc1 [Compound 188, phenyl N-(4-methoxyphenyl)-2-methyl-3-(3-methylphenyloxy)-2-propenimidate]	100%
CC(=COc1ccc(C)cc1)C(=Nc1ccccc1)Oc1cccc(C(F)(F)F)c1 [Compound 206, 3-(trifluoromethyl)phenyl 2-methyl-3-(4-methylphenyloxy)-N-phenyl-2-propenimidate]	100%
COc1ccc(N=C(Oc2cccc(OC)c2)C(C)=COc2ccc(OC)cc2)cc1 [Compound 279, 3-methoxyphenyl N-(4-methoxyphenyl)-3-(4-methoxyphenyloxy)-2-methyl-2-propenimidate]	100%
CCc1cccc(OC(=Nc2ccc(OC)cc2)C(C)=COc2ccccc2OC)c1 [Compound 247, 3-ethylphenyl N-(4-methoxyphenyl)-3-(2-methoxyphenyloxy)-2-methyl-2-propenimidate]	100%
CCOc1cccc(OC(=Nc2ccccc2)C(C)=COc2cccc(C)c2)c1 [Compound 179, 3-ethoxyphenyl 2-methyl-3-(3-methylphenyloxy)-N-phenyl-2-propenimidate]	100%
CCc1cccc(OC(=Nc2ccccc2)C(C)=COc2cccc(C)c2)c1 [Compound 177, 3-ethylphenyl 2-methyl-3-(3-methylphenyloxy)-N-phenyl-2-propenimidate]	100%
CC(=COc1ccc(C)cc1)C(=Nc1ccc(C)cc1)Oc1cccc(F)c1 [Compound 214, 3-fluorophenyl 2-methyl-N-(4-methylphenyl)-3-(4-methylphenyloxy)-2-propenimidate]	100%
COc1ccc(OC=C(C)C(=Nc2ccc(C)cc2)Oc2cc(C)cc(C)c2)cc1 [Compound 275, 3,5-dimethylphenyl 3-(4-methoxyphenyloxy)-2-methyl-N-(4-methylphenyl)-2-propenimidate]	100%
CCOc1cccc(OC(=Nc2ccc(C)cc2)C(C)=COc2ccccc2OC)c1 [Compound 243, 3-ethoxyphenyl 3-(2-methoxyphenyloxy)-2-methyl-N-(4-methylphenyl)-2-propenimidate]	100%
CC(=COc1cccc(C)c1)C(=Nc1ccc(C)cc1)Oc1ccccc1 [Compound 183, phenyl 2-methyl-N-(4-methylphenyl)-3-(3-methylphenyloxy)-2-propenimidate]	100%
CC(=COc1ccc(C)cc1)C(=Nc1ccccc1)Oc1ccccc1C [Compound 194, 2-methylphenyl 2-methyl-3-(4-methylphenyloxy)-N-phenyl-2-propenimidate]	100%
CCc1cccc(OC(=Nc2ccc(C)c(C)c2)C(C)=COc2ccc(OC)cc2)c1 [Compound 284, 3-ethylphenyl N-(3,4-dimethylphenyl)-3-(4-methoxyphenyloxy)-2-methyl-2-propenimidate]	100%
CCc1cccc(OC(=Nc2ccc(C)cc2)C(C)=COc2cccc(C)c2)c1 [Compound 185, 3-ethylphenyl 2-methyl-N-(4-methylphenyl)-3-(3-methylphenyloxy)-2-propenimidate]	100%
